Experimental data reported in ChEMBL document CHEMBL3885881, “DrugMatrix”.

Organism: Rattus norvegicus
Experiment: DrugMatrix - Regimen: Daily Repeat
Format: toxicity, organism-based, Sprague-Dawley
Set-up: regimen Daily Repeat, gender Male, age 6-8 weeks
Conditions: in vivo, po, route oral GAVAGE, […]; for ABSOLUTE BASOPHIL / ABSOLUTE EOSINOPHIL / ABSOLUTE LYMPHOCYTE / ABSOLUTE MONOCYTE / ABSOLUTE SEGMENTED NEUTROPHIL / BASOPHIL / EOSINOPHIL / ERYTHROCYTE COUNT / HEMATOCRIT / HEMOGLOBIN / LEUKOCYTE COUNT / LYMPHOCYTE / MEAN CORPUSCULAR HEMOGLOBIN / MEAN CORPUSCULAR HEMOGLOBIN CONCENTRATION / MEAN CORPUSCULAR VOLUME / MONOCYTE / NEUTROPHIL / NUCLEATED RED BLOOD CELLS / PLATELET COUNT: tissue Blood; for ALANINE AMINOTRANSFERASE / ALBUMIN / ALKALINE PHOSPHATASE / ASPARTATE AMINOTRANSFERASE / BLOOD UREA NITROGEN / CARBON DIOXIDE / CHLORIDE / CHOLESTEROL / CREATINE PHOSPHOKINASE / CREATININE / GLUCOSE / LACTATE DEHYDROGENASE / LIPASE / PHOSPHORUS / POTASSIUM / SODIUM / TOTAL BILIRUBIN / TOTAL PROTEIN / URIC ACID: tissue Plasma
[1] = 0 mg/kg, 72 h, dose level Control, time 3 day
[2] = 0 mg/kg, 120 h, dose level Control, time 5 day
[3] = 25 mg/kg, 72 h, dose level Low, time 3 day

CC(C)(C)NC(=O)[C@H]1CC[C@H]2[C@@H]3CC[C@H]4NC(=O)C=C[C@]4(C)[C@H]3CC[C@]12C [FINASTERIDE]
ABSOLUTE BASOPHIL [1]: 0 CELLS/uL | ABSOLUTE EOSINOPHIL [1]: 52.33 CELLS/uL | ABSOLUTE LYMPHOCYTE [1]: 9105.33 CELLS/uL | ABSOLUTE MONOCYTE [1]: 155.67 CELLS/uL | ABSOLUTE SEGMENTED NEUTROPHIL [1]: 1020 CELLS/uL | BASOPHIL [1]: 0% | EOSINOPHIL [1]: 0.33% | ERYTHROCYTE COUNT [1]: 5.03 x10E6/uL | HEMATOCRIT [1]: 31.63% | HEMOGLOBIN [1]: 12.37 G/DL | LEUKOCYTE COUNT [1]: 10.33 x10E3/uL | LYMPHOCYTE [1]: 87% | MEAN CORPUSCULAR HEMOGLOBIN [1]: 24.57 pg | MEAN CORPUSCULAR HEMOGLOBIN CONCENTRATION [1]: 39.07 G/DL | MEAN CORPUSCULAR VOLUME [1]: 62.93 fL | MONOCYTE [1]: 1.33% | NEUTROPHIL [1]: 11.33% | NUCLEATED RED BLOOD CELLS [1]: 0 /100WBC | PLATELET COUNT [1]: 896 x10E3/uL | ALANINE AMINOTRANSFERASE [1]: 75.33 u/L | ALBUMIN [1]: 3.77 G/DL | ALKALINE PHOSPHATASE [1]: 378.67 u/L | ASPARTATE AMINOTRANSFERASE [1]: 101.33 u/L | BLOOD UREA NITROGEN [1]: 11.33 mg/dL | CARBON DIOXIDE [1]: 25 mmol/L | CHLORIDE [1]: 99 MEQ/L | CHOLESTEROL [1]: 66 mg/dL | CREATINE PHOSPHOKINASE [1]: 277 u/L | CREATININE [1]: 0.33 mg/dL | GLUCOSE [1]: 198.33 mg/dL | LACTATE DEHYDROGENASE [1]: 140.33 u/L | LIPASE [1]: 11.33 u/L | PHOSPHORUS [1]: 11.83 mg/dL | POTASSIUM [1]: 5.37 MEQ/L | SODIUM [1]: 141.03 MEQ/L | TOTAL BILIRUBIN [1]: 0.2 mg/dL | TOTAL PROTEIN [1]: 5.47 G/DL | URIC ACID [1]: 0.93 mg/dL | ABSOLUTE BASOPHIL [2]: 0 CELLS/uL | ABSOLUTE EOSINOPHIL [2]: 0 CELLS/uL | ABSOLUTE LYMPHOCYTE [2]: 8734 CELLS/uL | ABSOLUTE MONOCYTE [2]: 98.67 CELLS/uL | ABSOLUTE SEGMENTED NEUTROPHIL [2]: 1034 CELLS/uL | BASOPHIL [2]: 0% | EOSINOPHIL [2]: 0% | ERYTHROCYTE COUNT [2]: 5.19 x10E6/uL | HEMATOCRIT [2]: 33.2% | HEMOGLOBIN [2]: 12.93 G/DL | LEUKOCYTE COUNT [2]: 9.87 x10E3/uL | LYMPHOCYTE [2]: 87% | MEAN CORPUSCULAR HEMOGLOBIN [2]: 25 pg | MEAN CORPUSCULAR HEMOGLOBIN CONCENTRATION [2]: 39.03 G/DL | MEAN CORPUSCULAR VOLUME [2]: 63.93 fL | MONOCYTE [2]: 1% | NEUTROPHIL [2]: 12% | NUCLEATED RED BLOOD CELLS [2]: 0 /100WBC | PLATELET COUNT [2]: 1190 x10E3/uL | ALANINE AMINOTRANSFERASE [2]: 75.67 u/L | ALBUMIN [2]: 4 G/DL | ALKALINE PHOSPHATASE [2]: 384.33 u/L | ASPARTATE AMINOTRANSFERASE [2]: 89.67 u/L | BLOOD UREA NITROGEN [2]: 13 mg/dL | CARBON DIOXIDE [2]: 32.67 mmol/L | CHLORIDE [2]: 103 MEQ/L | CHOLESTEROL [2]: 79.67 mg/dL | CREATINE PHOSPHOKINASE [2]: 199.33 u/L | CREATININE [2]: 0.29 mg/dL | GLUCOSE [2]: 161.33 mg/dL | LACTATE DEHYDROGENASE [2]: 92.33 u/L | LIPASE [2]: 11.67 u/L | PHOSPHORUS [2]: 10.8 mg/dL | POTASSIUM [2]: 5.38 MEQ/L | SODIUM [2]: 145.3 MEQ/L | TOTAL BILIRUBIN [2]: 0.17 mg/dL | TOTAL PROTEIN [2]: 5.7 G/DL | URIC ACID [2]: 0.63 mg/dL | ABSOLUTE BASOPHIL [3]: 0 CELLS/uL | ABSOLUTE EOSINOPHIL [3]: 0 CELLS/uL | ABSOLUTE LYMPHOCYTE [3]: 6334 CELLS/uL | ABSOLUTE MONOCYTE [3]: 74.67 CELLS/uL | ABSOLUTE SEGMENTED NEUTROPHIL [3]: 624.67 CELLS/uL | BASOPHIL [3]: 0% | EOSINOPHIL [3]: 0% | ERYTHROCYTE COUNT [3]: 5.31 x10E6/uL | HEMATOCRIT [3]: 33.17% | HEMOGLOBIN [3]: 12.87 G/DL | LEUKOCYTE COUNT [3]: 7.03 x10E3/uL | LYMPHOCYTE [3]: 89.67% | MEAN CORPUSCULAR HEMOGLOBIN [3]: 24.23 pg | MEAN CORPUSCULAR HEMOGLOBIN CONCENTRATION [3]: 38.8 G/DL | MEAN CORPUSCULAR VOLUME [3]: 62.43 fL | MONOCYTE [3]: 1% | NEUTROPHIL [3]: 9.33% | NUCLEATED RED BLOOD CELLS [3]: 0 /100WBC | PLATELET COUNT [3]: 1308 x10E3/uL | ALANINE AMINOTRANSFERASE [3]: 57.33 u/L | ALBUMIN [3]: 3.9 G/DL | ALKALINE PHOSPHATASE [3]: 360 u/L | ASPARTATE AMINOTRANSFERASE [3]: 80.67 u/L | BLOOD UREA NITROGEN [3]: 11 mg/dL | CARBON DIOXIDE [3]: 26.33 mmol/L | CHLORIDE [3]: 101.33 MEQ/L | CHOLESTEROL [3]: 77 mg/dL | CREATINE PHOSPHOKINASE [3]: 434.67 u/L | CREATININE [3]: 0.12 mg/dL | GLUCOSE [3]: 184.33 mg/dL | LACTATE DEHYDROGENASE [3]: 112 u/L | LIPASE [3]: 10.67 u/L | PHOSPHORUS [3]: 12.1 mg/dL | POTASSIUM [3]: 4.86 MEQ/L | SODIUM [3]: 144.9 MEQ/L | TOTAL BILIRUBIN [3]: 0.2 mg/dL | TOTAL PROTEIN [3]: 5.83 G/DL | URIC ACID [3]: 0.87 mg/dL
